Values belong to the molecule of their own block, whether it stands above or below them.
Key:
[1] = molecular target: T1, HEK293T cells overexpressing a NanoLuc–SIRT2 fusion protein (Homo sapiens, UniProt Q8IXJ6); test: CE-ESI-MS analysis of adducts formed in cellulo; type: cell-based; conditions: 20 µM, 3 h
T1 construct: transfected HEK293T cells expressing the NanoLuc-tagged SIRT250-356 fusion protein were used instead of transient; expressed in transfected cells; host or cells: HEK293T (stably transfected)
T1 sequence (Q8IXJ6 50-356 limits assumed): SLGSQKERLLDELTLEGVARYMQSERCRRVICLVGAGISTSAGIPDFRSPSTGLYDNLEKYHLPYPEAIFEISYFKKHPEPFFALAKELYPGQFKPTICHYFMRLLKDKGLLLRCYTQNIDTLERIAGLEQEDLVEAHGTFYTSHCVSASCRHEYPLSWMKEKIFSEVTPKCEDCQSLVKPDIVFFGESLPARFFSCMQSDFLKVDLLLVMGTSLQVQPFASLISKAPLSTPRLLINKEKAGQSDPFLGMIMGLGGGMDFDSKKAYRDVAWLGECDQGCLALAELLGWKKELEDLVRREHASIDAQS

[2] = molecular target: T2, SIRT2 (Homo sapiens, UniProt Q8IXJ6); test: Jump-dilution assay; type: biochemical
T2 construct: For assay experiments, strep-tagged human SIRT1134−747 and SIRT256-356 were expressed and purified as previously; Strep-tag; made in house; host or cells: E. coli BL21 Star (DE3)
T2 sequence (Q8IXJ6 56-356 limits assumed): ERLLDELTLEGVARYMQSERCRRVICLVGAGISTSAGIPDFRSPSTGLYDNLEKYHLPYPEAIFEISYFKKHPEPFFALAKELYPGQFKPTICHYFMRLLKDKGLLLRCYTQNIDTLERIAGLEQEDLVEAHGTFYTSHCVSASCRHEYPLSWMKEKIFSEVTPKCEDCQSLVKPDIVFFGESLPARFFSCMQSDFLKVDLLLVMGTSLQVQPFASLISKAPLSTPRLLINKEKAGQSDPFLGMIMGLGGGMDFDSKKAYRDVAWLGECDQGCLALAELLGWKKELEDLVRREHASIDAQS

[3] = molecular target: T2, SIRT2; test: Kinetic analysis via continuous enzyme demyristoylation inhibition assay; type: biochemical; conditions: myristoylated substrate, two-step inhibition model; read-out: K I app
Procedure: solution was diluted 100-fold to a total volume of 40 µL with substrate (final concentration of 40 nM), NAD+ (final concentration of 500 µM) and DMSO (final concentration of 5 % (v/v)) and transferred to a black 384-well microplate (Optiplate 384 F, PerkinElmer). For NAD+ preincubation, 0.1 µL of inhibitor solution (40× IC50, […] after jump dilution), 0.1 µL of SIRT2 (400 nM, final concentration of 1 nM after jump dilution) and 0.2 µL of NAD+ ([…] concentration of 500 µM after jump dilution) were preincubated for 30 min. […] The change in fluorescence was monitored with a microplate reader (λEx = 485 nm, λEm = 530-10 nm, BMG POLARstar Optima, BMG Labtech, Germany) every 30 s for 20 min. […] Reaction rates were obtained from the slope of the fluorescence signal over time and converted to product concentration using calibration curves, assuming equal fluorescence intensities for substrate and product, as […]
Ft = time-dependent signal resulting from product formation (in µM, calculated from AU values), F0 = Y-intercept = background signal at reaction initiation (in µM, calculated from AU values), vi = initial product formation velocity (in µM/min), vs = final/steady-state product formation velocity (in µM/min), t = incubation time after enzyme addition (in min), kobs = observed rate of time-dependent inhibition from initial vi to final vs (in min-1). […]

[4] = test system: α‐tubulin; parameters: method as in PMID 35441145; conditions: cited from earlier work

ADPR adduct formation in cells by CE-ESI-MS/MS [1]: confirmed formation of 7–ADPR in cellulo
Compound: Cc1cc(C)nc(SCC(=O)Nc2ncc(Cc3cccc(OCc4c[nH]nn4)c3)s2)n1 [Compound 7]

SIRT2 enzymatic activity after jump dilution ([2]; preincubation of SIRT2 with compound and NAD+ (30 min), 1:100 dilution to 4 nM): 13%
SIRT2 enzymatic activity after jump dilution ([2]; without NAD+ preincubation, 1:100 dilution): 72%
Ki [3]: 24.7 µM
Compound: CCCCCCCCCCCCc1cn(CCCC[C@H](NC(=O)[C@H](CCCCN)NC(=O)[C@@H]2CCCN2C(=O)[C@H](CC(C)C)NC(=O)[C@H](C)NC(=O)[C@H](CCC(=O)O)NC(C)=O)C(=O)N[C@H](C(=O)NCC(=O)NCC(N)=O)[C@@H](C)O)nn1 [Compound 6]

Compound: COCCn1cc(COc2cccc(Cc3cnc(NC(=O)CSc4nc(C)cc(C)n4)s3)c2)nn1 [Compound 1, reference compound]
α-tubulin hyperacetylation [4]: pronounced α‐tubulin hyperacetylation

— publication PMC12723449, “From Pharmacophore to Warhead: NAD^+‐Targeting Triazoles as Mechanism‐Based Sirtuin Inhibitors” (Angewandte Chemie (International Ed. in English), 2025)
